Laboratory results: patent publication US20230265151A1, “GIP/GLP1 CO-AGONIST COMPOUNDS” (priority 2020, published 2023)
Like-named read-outs stand apart in the source and are kept apart here. *1 amine or outer side, *2 acyl side, *3 side chain or, on linkers, in order; H or OH if unused. Where a SMILES comes first, the peptide text is derived from it. Side-chain parts run from the residue outwards. [ ]: non-standard residue; d: D form. The star is where a group is joined. αMePhe(2-F) = C[C@](N)(Cc1ccccc1F)C(=O)O; γGlu = O=C(O)[C@H](CCC(=O)[*:2])N[*:1]; C14 diacid = O=C(O)CCCCCCCCCCCCC(=O)*; εLys = N[C@@H](CCCCN[*:1])C(=O)[*:2]; αMeY = C[C@](N)(Cc1ccc(O)cc1)C(=O)O; 4Pal = N[C@@H](Cc1ccncc1)C(=O)O; αMeL = CC(C)C[C@](C)(N)C(=O)O; Orn = NCCC[C@H](N)C(=O)O; AEEA = NCCOCCOCC(=O)O; Aib = CC(C)(N)C(=O)O

Tests used:
Assay type in all cases: cell-based
hGCGR = target: T1, hGCGR (Homo sapiens, UniProt P47871); assay: Functional cAMP formation (HTRF) in HEK-293 clonal cells expressing hGCGR, 0.1% bovine casein, without or with 1.0% human serum albumin; settings: geometric mean
T1 construct: expressed in transfected cells
T1 sequence (P47871 26-477): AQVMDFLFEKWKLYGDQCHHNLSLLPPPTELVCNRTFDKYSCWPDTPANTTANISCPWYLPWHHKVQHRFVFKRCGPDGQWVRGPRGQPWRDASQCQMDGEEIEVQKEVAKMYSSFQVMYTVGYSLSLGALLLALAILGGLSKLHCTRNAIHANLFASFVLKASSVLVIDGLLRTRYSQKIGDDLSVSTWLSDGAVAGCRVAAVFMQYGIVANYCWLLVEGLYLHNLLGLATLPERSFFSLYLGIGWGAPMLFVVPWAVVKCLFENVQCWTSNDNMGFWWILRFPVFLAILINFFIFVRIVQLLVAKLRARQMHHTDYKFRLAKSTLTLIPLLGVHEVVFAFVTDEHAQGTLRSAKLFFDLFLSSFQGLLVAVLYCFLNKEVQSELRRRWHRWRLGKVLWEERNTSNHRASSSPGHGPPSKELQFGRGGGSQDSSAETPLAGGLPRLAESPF
How it was run: (§1)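 Cells were stimulated with peptide for 30 min at 37° C, then lysed in buffer carrying cAMP-d2 and anti-cAMP Eu3+-cryptate for a competitive HTRF read after at least 60 min at room temperature. The 665/620 nm ratio was converted to nM cAMP against a standard curve.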

hGIPR = target: T2, hGIPR (Homo sapiens, UniProt P48546); assay: Functional cAMP formation (HTRF) in HEK-293 clonal cells expressing hGIPR, 0.1% bovine casein, without or with 1.0% human serum albumin; settings: for EC50: geometric mean, read-out: hGIPR EC50, nM (SEM, n)
T2 construct: expressed in transfected cells
T2 sequence (P48546 22-466): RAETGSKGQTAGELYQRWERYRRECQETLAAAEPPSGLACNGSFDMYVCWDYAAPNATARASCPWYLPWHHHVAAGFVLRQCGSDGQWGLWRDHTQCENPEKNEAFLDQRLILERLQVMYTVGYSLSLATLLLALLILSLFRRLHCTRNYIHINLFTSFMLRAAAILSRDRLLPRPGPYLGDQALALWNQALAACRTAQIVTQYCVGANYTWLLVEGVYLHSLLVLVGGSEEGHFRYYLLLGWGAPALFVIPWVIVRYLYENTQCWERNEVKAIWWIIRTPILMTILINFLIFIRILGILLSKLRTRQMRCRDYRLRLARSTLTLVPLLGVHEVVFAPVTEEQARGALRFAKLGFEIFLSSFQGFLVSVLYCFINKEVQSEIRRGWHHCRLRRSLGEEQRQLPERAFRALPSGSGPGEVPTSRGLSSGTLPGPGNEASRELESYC
How it was run: as §1

hGLP-1R = hGLP-1R (Homo sapiens, UniProt P43220); assay: Functional cAMP formation (HTRF) in HEK-293 clonal cells expressing hGLP-1R, 0.1% bovine casein, without or with 1.0% human serum albumin; design: expressed in transfected cells; settings: for EC50: geometric mean
Sequence of hGLP-1R (P43220 24-463): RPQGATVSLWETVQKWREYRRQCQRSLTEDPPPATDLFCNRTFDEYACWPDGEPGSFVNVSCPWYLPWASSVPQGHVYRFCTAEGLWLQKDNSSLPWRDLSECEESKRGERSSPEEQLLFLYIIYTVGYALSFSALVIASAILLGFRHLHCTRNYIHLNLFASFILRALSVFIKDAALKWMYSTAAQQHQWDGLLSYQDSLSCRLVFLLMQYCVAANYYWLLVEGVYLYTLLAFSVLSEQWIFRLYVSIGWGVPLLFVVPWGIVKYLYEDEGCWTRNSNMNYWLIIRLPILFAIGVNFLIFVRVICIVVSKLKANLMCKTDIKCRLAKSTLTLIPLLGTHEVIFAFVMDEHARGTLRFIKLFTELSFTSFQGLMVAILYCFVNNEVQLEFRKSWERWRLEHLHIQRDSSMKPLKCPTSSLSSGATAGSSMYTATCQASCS
How it was run: as §1

[1] = 0.1% bovine casein and 1.0% human serum albumin, 37° C., read-out: hGCGR EC50, nM (SEM, n)
[2] = cAMP, incubated at 37° C., 0.1% bovine casein (no human serum albumin), read-out: hGCGR EC50, nM (SEM, n)
[3] = 0.1% bovine casein and 1.0% human serum albumin, 37° C.
[4] = HEK293, 0.1% bovine casein and 1.0% human serum albumin, 37° C., percent of maximal response to GIP(1-42)NH2, read-out: hGIPR Emax, % ± SEM
[5] = HEK293, percent of maximal response to GIP(1-42)NH2, 37° C., 0.1% bovine casein, arithmetic mean, read-out: hGIPR Emax, % ± SEM
[6] = cAMP, incubated at 37° C., 0.1% bovine casein (no human serum albumin)
[7] = 0.1% bovine casein and 1.0% human serum albumin, 37° C., read-out: hGLP-1R EC50, nM (SEM, n)
[8] = HEK293, 0.1% bovine casein and 1.0% human serum albumin, 37° C., percent of maximal response to GLP-1(7-36)NH2, read-out: hGLP-1R Emax, % ± SEM
[9] = HEK293, percent of maximal response to GLP-1(7-36)NH2, 37° C., 0.1% bovine casein, arithmetic mean, read-out: hGLP-1R Emax, % ± SEM
[10] = cAMP, incubated at 37° C., 0.1% bovine casein (no human serum albumin), read-out: hGLP-1R EC50, nM (SEM, n)

SMILES | EC50 (hGCGR; hGCGR EC50, nM (SEM, n), cAMP, incubated at 37° C., 0.1% bovine casein (no human serum albumin)) [nM] | Emax (hGIPR; HEK293, read-out: hGIPR Emax, % ± SEM, percent of maximal response to GIP(1-42)NH2, 37° C., 0.1% bovine casein, arithmetic mean) [%] | Emax (hGLP-1R; HEK293, read-out: hGLP-1R Emax, % ± SEM, percent of maximal response to GLP-1(7-36)NH2, 37° C., 0.1% bovine casein, arithmetic mean) [%] | EC50 (hGLP-1R; hGLP-1R EC50, nM (SEM, n), cAMP, incubated at 37° C., 0.1% bovine casein (no human serum albumin)) [nM] | EC50 (hGCGR; [1]) [nM] | EC50 (hGCGR; [2]) [nM] | EC50 (hGIPR; [3]) [nM] | Emax (hGIPR; [4]) [%] | Emax (hGIPR; [5]) [%] | EC50 (hGIPR; [6]) [nM] | EC50 (hGLP-1R; [7]) [nM] | Emax (hGLP-1R; [8]) [%] | Emax (hGLP-1R; [9]) [%] | EC50 (hGLP-1R; [10]) [nM]
CC[C@H](C)[C@H](NC(=O)[C@H](CC(C)C)NC(=O)[C@](C)(Cc1ccc(O)cc1)NC(=O)[C@H](CCCCNC(=O)COCCOCCNC(=O)COCCOCCNC(=O)CC[C@H](NC(=O)CCCCCCCCCCCCC(=O)O)C(=O)O)NC(=O)[C@@H](NC(=O)[C@H](Cc1ccccc1)NC(=O)[C@H](CCC(=O)O)NC(=O)C(C)(C)NC(=O)[C@H](CCC(N)=O)NC(=O)[C@H](C)NC(=O)[C@H](CCCCNC(=O)COCCOCCNC(=O)COCCOCCNC(=O)CC[C@H](NC(=O)CCCCCCCCCCCCC(=O)O)C(=O)O)NC(=O)[C@H](CCCN)NC(=O)[C@H](CC(=O)O)NC(=O)[C@H](CC(C)C)NC(=O)[C@](C)(CC(C)C)NC(=O)[C@@H](NC(=O)C(C)(C)NC(=O)[C@@H](NC(=O)[C@H](CC(=O)O)NC(=O)[C@H](CO)NC(=O)[C@@H](NC(=O)[C@](C)(Cc1ccccc1)NC(=O)[C@@H](NC(=O)CNC(=O)[C@H](CCC(=O)O)NC(=O)C(C)(C)NC(=O)[C@@H](N)Cc1ccc(O)cc1)[C@@H](C)O)[C@@H](C)O)C(C)C)[C@@H](C)CC)[C@@H](C)CC)C(=O)N[C@@H](CCC(=O)O)C(=O)NCC(=O)NCC(=O)N1CCC[C@H]1C(=O)N[C@@H](CO)C(=O)N[C@@H](CO)C(=O)NCC(=O)N[C@@H](C)C(=O)N1CCC[C@H]1C(=O)N1CCC[C@H]1C(=O)N1CCC[C@H]1C(=O)N[C@@H](CO)C(N)=O [Example 182] | > 9950 | 89 | 96.9 | 0.185 | – | – | – | – | – | – | – | – | – | –
CC[C@H](C)[C@H](NC(=O)[C@H](CC(C)C)NC(=O)[C@](C)(Cc1ccc(O)cc1)NC(=O)[C@@H](CCC(=O)O)NC(=O)[C@@H](NC(=O)[C@H](Cc1ccccc1)NC(=O)[C@H](CCC(=O)O)NC(=O)C(C)(C)NC(=O)[C@H](CCC(N)=O)NC(=O)[C@H](C)NC(=O)[C@H](CCCCNC(=O)COCCOCCNC(=O)COCCOCCNC(=O)CC[C@H](NC(=O)CCCCCCCCCCCCC(=O)O)C(=O)O)NC(=O)[C@H](CCCN)NC(=O)[C@H](CC(=O)O)NC(=O)[C@H](CC(C)C)NC(=O)[C@](C)(CC(C)C)NC(=O)[C@@H](NC(=O)[C@H](CO)NC(=O)[C@H](Cc1ccncc1)NC(=O)[C@H](CC(=O)O)NC(=O)[C@H](CO)NC(=O)[C@@H](NC(=O)[C@](C)(Cc1ccccc1F)NC(=O)[C@@H](NC(=O)CNC(=O)[C@H](CCC(=O)O)NC(=O)C(C)(C)NC(=O)[C@@H](N)Cc1ccc(O)cc1)[C@@H](C)O)[C@@H](C)O)[C@@H](C)CC)[C@@H](C)CC)C(=O)N[C@@H](CCC(=O)O)C(=O)NCC(=O)NCC(=O)N[C@@H](CCCCNC(=O)COCCOCCNC(=O)COCCOCCNC(=O)CC[C@H](NC(=O)CCCCCCCCCCCCC(=O)O)C(=O)O)C(=O)N[C@@H](CO)C(=O)N[C@@H](CO)C(=O)NCC(N)=O [Example 183] (H-Y[Aib]EGT[αMePhe(2-F)]TSD[4Pal]SI[αMeL]LD[Orn]K([AEEA-AEEA-γGlu-C14 diacid])AQ[Aib]EFI[dE][αMeY]LIEGGK([AEEA-AEEA-γGlu-C14 diacid])SSG-NH2) | – | – | – | – | > 9950 | > 9950 | 1.22 | 75.5 | 93.5 ± 1.46 | 0.0326 | 66.6 | 97.3 | 93.9 ± 4.99 | 1.37
CC[C@H](C)[C@H](NC(=O)[C@H](CC(C)C)NC(=O)[C@](C)(Cc1ccc(O)cc1)NC(=O)[C@@H](CCC(=O)O)NC(=O)[C@@H](NC(=O)[C@H](Cc1ccccc1)NC(=O)[C@H](CCC(=O)O)NC(=O)C(C)(C)NC(=O)[C@H](CCC(N)=O)NC(=O)[C@H](C)NC(=O)[C@H](CCCCNC(=O)COCCOCCNC(=O)COCCOCCNC(=O)CC[C@H](NC(=O)CCCCCCCCCCCCC(=O)O)C(=O)O)NC(=O)[C@H](CCCN)NC(=O)[C@H](CC(=O)O)NC(=O)[C@H](CC(C)C)NC(=O)[C@](C)(CC(C)C)NC(=O)[C@@H](NC(=O)[C@H](CO)NC(=O)[C@H](Cc1ccncc1)NC(=O)[C@H](CC(=O)O)NC(=O)[C@H](CO)NC(=O)[C@@H](NC(=O)[C@](C)(Cc1ccccc1F)NC(=O)[C@@H](NC(=O)CNC(=O)[C@H](CCC(=O)O)NC(=O)C(C)(C)NC(=O)[C@@H](N)Cc1ccc(O)cc1)[C@@H](C)O)[C@@H](C)O)[C@@H](C)CC)[C@@H](C)CC)C(=O)N[C@@H](CCC(=O)O)C(=O)NCC(=O)NCC(=O)N[C@@H](CCCCNC(=O)COCCOCCNC(=O)COCCOCCNC(=O)CC[C@H](NC(=O)CCCCCCCCCCCCC(=O)O)C(=O)O)C(N)=O [Example 184] (H-Y[Aib]EGT[αMePhe(2-F)]TSD[4Pal]SI[αMeL]LD[Orn]K([AEEA-AEEA-γGlu-C14 diacid])AQ[Aib]EFI[dE][αMeY]LIEGGK([AEEA-AEEA-γGlu-C14 diacid])-NH2) | – | – | – | – | > 9950 | > 9950 | 2.46 | 81.2 | 95.2 ± 1.13 | 0.0354 | 119 | 87.8 | 96.8 ± 12 | 1.82
CC[C@H](C)[C@H](NC(=O)[C@H](CC(C)C)NC(=O)[C@](C)(Cc1ccc(O)cc1)NC(=O)[C@@H](CCC(=O)O)NC(=O)[C@@H](NC(=O)[C@H](Cc1ccccc1)NC(=O)[C@H](CCC(=O)O)NC(=O)C(C)(C)NC(=O)[C@H](CCC(N)=O)NC(=O)[C@H](C)NC(=O)[C@H](CCCCNC(=O)COCCOCCNC(=O)COCCOCCNC(=O)[C@@H](N)CCCCNC(=O)CCCCCCCCCCCCC(=O)O)NC(=O)[C@H](CCCN)NC(=O)[C@H](CC(=O)O)NC(=O)[C@H](CC(C)C)NC(=O)[C@](C)(CC(C)C)NC(=O)[C@@H](NC(=O)[C@H](CO)NC(=O)[C@H](Cc1ccncc1)NC(=O)[C@H](CC(=O)O)NC(=O)[C@H](CO)NC(=O)[C@@H](NC(=O)[C@](C)(Cc1ccccc1F)NC(=O)[C@@H](NC(=O)CNC(=O)[C@H](CCC(=O)O)NC(=O)C(C)(C)NC(=O)[C@@H](N)Cc1ccc(O)cc1)[C@@H](C)O)[C@@H](C)O)[C@@H](C)CC)[C@@H](C)CC)C(=O)N[C@@H](CCC(=O)O)C(=O)NCC(=O)NCC(=O)N[C@@H](CCCCNC(=O)COCCOCCNC(=O)COCCOCCNC(=O)[C@@H](N)CCCCNC(=O)CCCCCCCCCCCCC(=O)O)C(N)=O [Example 185] (H-Y[Aib]EGT[αMePhe(2-F)]TSD[4Pal]SI[αMeL]LD[Orn]K([AEEA-AEEA-εLys-C14 diacid])AQ[Aib]EFI[dE][αMeY]LIEGGK([AEEA-AEEA-εLys-C14 diacid])-NH2; N-terminus assumed) | – | – | – | – | > 9950 | > 9950 | 0.335 | 86.2 | 94.5 ± 0.288 | 0.018 | 11.3 | – | 95.1 ± 1.74 | 0.419
